The values that follow are results of earlier work, collected in patent US8575311B2, “Collagen peptide conjugates and uses therefor” (Purdue Research Foundation, priority 2008, dated 2013).

The conditions of this series: comparison value, conditions not given.

As to (Pro-Hyp-Gly)9, the “Tm of comparison peptide” value is 67 °C.
